Eleven compounds from PubChem BioAssay (NCI) can be followed below.

Values joined by “and” are separate entries in the source; they are usually repeats but may differ in a detail not shown here. Equal entries are not always repeated.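 Compound exposure: 48 hours, 5 concentrations, 96-well plates. Here, GI50 denotes the concentration required for 50% inhibition of growth. The concentration for full growth arrest is given as TGI.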

Some test systems named below: EKVX NSCLC; NCI-H460 lung; U251 CNS; HCT-15 colon; CAKI-1 renal; LOX IMVI melanoma; HCC-2998 colon; HOP-92 NSCLC; OVCAR-5 ovarian; NCI-H522 lung.
Holding throughout (test): inhibition of tumour cell growth, NCI panel, 48 h

As to `CCOc1ccccc1/C=N\N=C(N/N=C/c1ccccc1OCC)N/N=C/c1ccccc1OCC`, the GI50 in the assay on EKVX NSCLC is 3.04 µM; in the assay with NCI-H460 lung, 1.35 µM; with U251 CNS it was 1.53 µM; with HCT-15 colon it was 0.95 µM; in the assay with CAKI-1 renal it was 1.4 µM; in the assay on LOX IMVI melanoma, 1.8 µM. For the same compound, the GI50 is 0.826 µM in the assay with HCC-2998 colon, 1.24 µM in the assay on HOP-92 NSCLC and 2.52 µM in the assay with OVCAR-5 ovarian. Moreover, the TGI in the assay on EKVX NSCLC, in the assay on NCI-H460 lung, in the assay with U251 CNS, in the assay on HCT-15 colon, in the assay with CAKI-1 renal and in the assay on LOX IMVI melanoma was greater than 100 µM throughout. The TGI with HCC-2998 colon was greater than 100 µM; in the assay on HOP-92 NSCLC, 5.63 µM; in the assay on OVCAR-5 ovarian, greater than 100 µM.

With `O=CCCn1[nH]c(=O)ccc1=O`, the TGI with EKVX NSCLC, in the assay on NCI-H460 lung, in the assay with U251 CNS, in the assay on HCT-15 colon, with CAKI-1 renal and in the assay with LOX IMVI melanoma was greater than 100 µM each time. Besides, the TGI in the assay with HCC-2998 colon, in the assay on HOP-92 NSCLC and in the assay on OVCAR-5 ovarian was greater than 100 µM in each case.

In the case of `CCCCCCOC(=O)CC1=C(C)/C(=C/c2[nH]c(-c3ccc[nH]3)cc2OC)N=C1C`, the GI50 with EKVX NSCLC was 0.0576 µM; with NCI-H460 lung it was 0.355 µM; in the assay on U251 CNS it was 0.0675 µM; with HCT-15 colon it was 0.0315 µM; in the assay on CAKI-1 renal it was 0.0706 µM; in the assay with LOX IMVI melanoma, 0.0218 µM. In addition, the GI50 in the assay on NCI-H522 lung is 0.0506 µM; in the assay on HOP-92 NSCLC, 0.0332 µM; with OVCAR-5 ovarian, 0.371 µM. Further, the TGI with EKVX NSCLC was found to be 1.64 µM; in the assay with NCI-H460 lung, 1.39 µM; in the assay on U251 CNS it was 1.13 µM; with HCT-15 colon, 1.14 µM; in the assay with CAKI-1 renal it was 1.12 µM; in the assay with LOX IMVI melanoma, 0.0565 µM. In addition, the TGI in the assay on NCI-H522 lung came to 1.12 µM; with HOP-92 NSCLC, 0.351 µM; with OVCAR-5 ovarian it was 2 µM.

With `OCC1OC(N2C=C(c3nc4ccccc4s3)C3C=CC=CC32)C(O)C(O)C1O` (stereo not given), the GI50 is 18.1 µM in the assay on EKVX NSCLC; 24 µM in the assay on NCI-H460 lung; 16.6 µM with U251 CNS; 31.1 µM with HCT-15 colon; 16.9 µM in the assay on CAKI-1 renal; 10.9 µM in the assay with LOX IMVI melanoma. Further, the GI50 in the assay with NCI-H522 lung is greater than 50 µM; in the assay on HOP-92 NSCLC, 9.51 µM; in the assay on OVCAR-5 ovarian, 16.5 µM. Besides, the TGI in the assay on EKVX NSCLC is greater than 50 µM; with NCI-H460 lung, greater than 50 µM; in the assay with U251 CNS it was greater than 50 µM; in the assay with HCT-15 colon it was greater than 50 µM; in the assay with CAKI-1 renal, greater than 50 µM; with LOX IMVI melanoma, 26 µM. The values for the TGI in the assay with NCI-H522 lung, in the assay with HOP-92 NSCLC and in the assay with OVCAR-5 ovarian were greater than 50 µM, 30.2 µM and greater than 50 µM, respectively.

For the compound `CCOC(=O)NC(=O)c1cn(CCSCCOC(=O)NCCCCCCNC(=O)OCCSCCn2cc(C(=O)NC(=O)OCC)c(=O)n(C)c2=O)c(=O)n(C)c1=O`, the TGI with EKVX NSCLC was greater than 100 µM; in the assay on NCI-H460 lung, greater than 100 µM; in the assay with U251 CNS, 40.3 µM; with HCT-15 colon, greater than 100 µM; in the assay with LOX IMVI melanoma it was greater than 100 µM; in the assay on HCC-2998 colon, greater than 100 µM. For the same compound, the TGI in the assay with HOP-92 NSCLC and in the assay with OVCAR-5 ovarian was greater than 100 µM each time.

Consider `COc1ccc(/C=C/c2onc3c(=O)n(C)nc(-c4ccccc4)c23)cc1`, for which the TGI in the assay on EKVX NSCLC is greater than 100 µM; in the assay on NCI-H460 lung it was greater than 100 µM; in the assay on U251 CNS it was greater than 100 µM; in the assay on HCT-15 colon it was greater than 100 µM; in the assay with CAKI-1 renal, 82.2 µM; with LOX IMVI melanoma it was greater than 100 µM. Moreover, the results for the TGI with NCI-H522 lung and in the assay on HOP-92 NSCLC were greater than 100 µM and 80.5 µM, respectively.

For the compound `CCCCCCCCCCCCCCCCn1cc[n+](C)c1`, the GI50 is 0.422 µM in the assay with EKVX NSCLC; 0.486 µM with NCI-H460 lung; 0.356 µM with U251 CNS; 0.989 µM in the assay with HCT-15 colon; 0.385 µM in the assay on CAKI-1 renal; 0.412 µM in the assay on LOX IMVI melanoma. Moreover, the values for the GI50 in the assay with HCC-2998 colon, in the assay on HOP-92 NSCLC and in the assay on OVCAR-5 ovarian were 0.277 µM, 0.34 µM and 0.329 µM, respectively. In addition, the TGI with EKVX NSCLC came to 1.96 µM; with NCI-H460 lung it was 1.83 µM; with U251 CNS, 1.53 µM; with HCT-15 colon it was 2.15 µM; in the assay with CAKI-1 renal it was 2.33 µM; in the assay on LOX IMVI melanoma it was 1.64 µM. The TGI worked out at 1.13 µM with HCC-2998 colon, 1.68 µM in the assay on HOP-92 NSCLC and 1.64 µM in the assay on OVCAR-5 ovarian.

Consider `C[C@@H]1CC[C@@]2(C)OC(c3ccccc3)[C@H](CO)N2C1=O` (stereo not given in full), for which the TGI with EKVX NSCLC, in the assay with NCI-H460 lung, in the assay with U251 CNS, in the assay with HCT-15 colon, with CAKI-1 renal and in the assay with LOX IMVI melanoma was greater than 100 µM in each case. Besides, the TGI in the assay with HOP-92 NSCLC and in the assay on OVCAR-5 ovarian was greater than 100 µM in each case.

For `C[C@]12Cc3conc3C(O)=C1CC[C@@H]1C2CC[C@@]2(C)C1CC[C@@H]2O` (stereo not given in full), the TGI is 64.7 µM in the assay with EKVX NSCLC; 40.7 µM in the assay with NCI-H460 lung; 64.4 µM in the assay on U251 CNS; greater than 100 µM in the assay with HCT-15 colon; greater than 100 µM in the assay on CAKI-1 renal; 24.9 µM with LOX IMVI melanoma. The TGI with NCI-H522 lung was 13.5 µM; with HOP-92 NSCLC it was 63.6 µM; in the assay on OVCAR-5 ovarian it was greater than 100 µM.

With `CC[C@]12CN3CCc4c([nH]c5ccccc45)[C@@](C(=O)OC)(c4cc5c(cc4OC)N(C)[C@H]4[C@@](O)(C(=O)OC)[C@H](OC(C)=O)[C@]6(CC)C=CCN7CC[C@]54[C@@H]76)CC(C3)[C@H]1O2` (stereo not given in full), the GI50 in the assay on EKVX NSCLC was 0.256 µM; in the assay with NCI-H460 lung it was 0.167 µM; in the assay on U251 CNS, 0.137 µM; in the assay with HCT-15 colon, 2.92 µM; in the assay on CAKI-1 renal it was 3.72 µM; in the assay with LOX IMVI melanoma it was 0.145 µM. The figures for the GI50 in the assay with HCC-2998 colon, in the assay with HOP-92 NSCLC and with OVCAR-5 ovarian were 0.226 µM, 1.29 µM and 1.19 µM, respectively. In addition, the TGI in the assay with EKVX NSCLC is greater than 100 µM; in the assay on NCI-H460 lung, 10.9 µM and > 27.4 µM; in the assay on U251 CNS, 34 µM and > 50 µM; in the assay on HCT-15 colon it was 9.43 µM and > 28.1 µM; with CAKI-1 renal, greater than 100 µM; with LOX IMVI melanoma, greater than 100 µM. The TGI with HOP-92 NSCLC and in the assay with OVCAR-5 ovarian was greater than 100 µM in each case.

Take `COc1ccc2c(n1)Sc1nc3ccccc3nc1N2`: the TGI in the assay with EKVX NSCLC is 60.3 µM; in the assay on NCI-H460 lung, greater than 100 µM; with U251 CNS, 52.7 µM; with HCT-15 colon it was greater than 100 µM; with CAKI-1 renal it was greater than 100 µM; with LOX IMVI melanoma, greater than 100 µM. For the same compound, the TGI in the assay with NCI-H522 lung, in the assay on HOP-92 NSCLC and in the assay on OVCAR-5 ovarian was greater than 100 µM in each case.
